In US4140764A, “β-Lactamase inhibitors and process for their preparation” (priority 1975, dated 1979):
Counter-ions that a name gives are not always drawn.

Experiments:
[1] = biological target: T1, β-lactamase of E. coli JT410 (Escherichia coli, UniProt P00811); test: standard enzyme inhibitory assay (Example 49); assay type: biochemical; conditions: read-out: I50 (converted)
T1 construct: E. coli JT410; endogenous in cells; host or cells: Escherichia coli JT410

[2] = test system: Staphylococcus aureus (Russell); test: Antibacterial synergism, microtitre method (Example 42); assay type: cell-based
[3] = Hydrolysis of the methyl ester to clavulanic acid in pH 7 buffer; assay type: physicochemical
Excerpt: Many esters of clavulanic acid differ from analagous esters of penicillins or cephalosporins in that they show an enhanced tendency to hydrolyze to clavulanic acid under mild conditions. […] Esters which undergo some hydrolysis under mild conditions are included within the formula (IX): [drawing 8] wherein R^1 is a hydrocarbon group of 1- 9 carbon atoms optionally substituted by halogen, lower alkoxy, hydroxyl or optionally salted basic groups of the formula NR^2 R^3 wherein R^2 is a hydrogen atom or a lower alkyl group, R^3 is a hydrogen atom or a lower alkyl group or is attached to R^2 so that NR^2 R^3 is a 5- or 6- membered ring.
The reaction was followed by paper chromatography (bioautographic system). Using the butanol/ethanol/water system to follow the reaction over a period of 2 hours the zone of the methyl ester at Rf 0.79 decreased in size as the zone of clavulanic acid at Rf 0.12 increased.

Staphylococcus aureus = test: Antibacterial synergism, microtitre method (Example 42); assay type: cell-based; conditions: Table 6
Klebsiella Aerogenes 62 = test: as above; assay type: cell-based; conditions: Table 8, strain 62
Proteus mirabilis C889 = test: Synergism of clavulanic acid methyl ester, M.I.C. (Example 32); assay type: cell-based
[4] = test system: Klebsiella Aerogenes E 70; test: Antibacterial synergism, microtitre method (Example 42); assay type: cell-based; conditions: Table 8, strain E 70
Klebsiella aerogenes A = test: as above; assay type: cell-based; conditions: Table 8, strain A
Enterobacter cloacae = test: as above; assay type: cell-based; conditions: Table 5, inoculum 0.5 × 10^-2, read-out: Minimum Inhibitory Concentration, compound alone
[5] = test system: Staphylococcus aureus (Russell); test: Synergism of clavulanic acid methyl ester, M.I.C. (Example 32); assay type: cell-based
Escherichia coli B 11 = test: Antibacterial synergism, microtitre method (Example 42); assay type: cell-based; conditions: B11, Table 5, inoculum 0.5 × 10^-2, read-out: Minimum Inhibitory Concentration, compound alone

T1 sequence (P00811 20-377): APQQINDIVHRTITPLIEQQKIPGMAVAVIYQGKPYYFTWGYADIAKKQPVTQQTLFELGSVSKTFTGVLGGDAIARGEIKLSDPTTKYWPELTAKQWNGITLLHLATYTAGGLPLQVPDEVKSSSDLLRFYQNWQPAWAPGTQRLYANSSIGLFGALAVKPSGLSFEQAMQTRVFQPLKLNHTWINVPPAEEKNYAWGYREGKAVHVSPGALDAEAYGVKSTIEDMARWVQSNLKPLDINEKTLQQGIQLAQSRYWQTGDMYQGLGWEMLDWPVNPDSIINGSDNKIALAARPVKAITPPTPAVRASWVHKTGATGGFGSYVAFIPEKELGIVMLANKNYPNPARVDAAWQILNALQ

## O=C(COc1ccccc1)OC/C=C1\O[C@@H]2CC(=O)N2[C@H]1C(=O)OCc1ccccc1 [benzyl phenoxyacetylclavulanate, Benzyl Phenoxyacetylclavulanate]
[1]
  IC50: 3.54 µM

## O=C(Cc1cccs1)N[C@@H]1C(=O)N2C(C(=O)[O-])=C(C[n+]3ccccc3)CS[C@H]12 [cephaloridine]
[2]
  Minimum Inhibitory Concentration of cephaloridine with synergist added at 1 μg/ml instead of 5 μg/ml: Same value

## COC(=O)[C@H]1/C(=C/CO)O[C@@H]2CC(=O)N21 [clavulanic acid methyl ester]
[3]; 1 mg/ml, 37° C., 0.05M phosphate buffer pH 7, followed over 2 hours
  conversion of the ester to clavulanic acid: Slow conversion
[3]; water buffered to pH7
  hydrolysis to clavulanic acid: slowly hydrolyze

## O=C(O)[C@H]1/C(=C/CO)O[C@@H]2CC(=O)N21 [clavulanic acid sodium salt, 3-(β-hydroxyethylidine)-7-oxo-4-oxa-1-azabicyclo [3,2,0]heptane-2-carboxylic acid sodium salt]
[2]; Table 6
  Minimum Inhibitory Concentration, compound alone: 15 µg/mL
Staphylococcus aureus
  Minimum Inhibitory Concentration, compound alone: 62 µg/mL

## CC1(C)S[C@@H]2[C@H](NC(=O)[C@H](N)c3ccccc3)C(=O)N2[C@H]1C(=O)O [ampicillin]
Klebsiella Aerogenes 62
  MIC of Ampicillin + 5 μg/ml of Benzyl Ester of clavulanic acid: 3.9 µg/mL
  MIC of Ampicillin + 5 μg/ml of Methyl Ester of clavulanic acid: 3.9 µg/mL
Proteus mirabilis C889
  M.I.C. of ampicillin in the presence of 5 μg/ml. clavulanic acid methyl ester: 31 µg/mL
[4]
  MIC of Ampicillin + 5 μg/ml of Benzyl Ester of clavulanic acid: 3.9 µg/mL
  MIC of Ampicillin + 5 μg/ml of Methyl Ester of clavulanic acid: 3.9 µg/mL
Klebsiella aerogenes A
  MIC of Ampicillin + 5 μg/ml of Benzyl Ester of clavulanic acid: 1.9 µg/mL
  MIC of Ampicillin + 5 μg/ml of Methyl Ester of clavulanic acid: 1.9 µg/mL
Enterobacter cloacae
  MIC: 250 µg/mL
[5]
  M.I.C. of antibiotic in the presence of 1.0 μg/ml. clavulanic acid methyl ester: < 0.4 µg/mL
Escherichia coli B 11
  MIC: > 500 µg/mL
